Results published in patent publication US20050203082A1, “Combination therapy with inhibitors of inducible nitric oxide synthase and alkylating agents” (priority 2003, published 2005).
Structures can show the parent of a compound that is named as a salt.

What was measured:
human cartilage explants = assay: Human cartilage explant assay (IL-1 induced nitrite production); type: cell-based; details: inhibition of nitrite production, IL-1 stimulated explants
Description: Bone pieces are rinsed twice with Dulbecco's Phosphate Buffered Saline (GibcoBRL) and once with Dulbecco's Modified Eagles Medium (GibcoBRL) and placed into a petri dish with phenol red free Minimum Essential Medium (MEM) (GibcoBRL). […] The culture media was either a custom modification of Minimum Essential Medium(Eagle) with Earle's salts (GibcoBRL) prepared without L-Arginine, without L-Glutamine and without phenol red or a custom modification of serumless Neuman and Tytell (GibcoBRL) medium prepared without L-arginine, without insulin, without ascorbic acid, without L-glutamine and without phenol red. Both are supplemented before use with 100 μM L-Arginine (Sigma), 2 mM L-glutamine, 1× HL-1 supplement (BioWhittaker), […] ascorbic acid (Sigma) and 150 pg/ml recombinant human IL-1[…] (RD Systems) to induce nitric oxide synthase. Compounds are then added in 10 μL aliquots and the explants incubated at 37° C. with 5% CO2 for 18-24 hr. The day old supernatant is then discarded and replaced with fresh culture media containing recombinant human IL-1β and compound and incubated for another 20-24 hr. […] All samples are done in quadruplicate. Unstimulated controls are cultured in media in the absence of recombinant human IL-1{tilde over (□)} IC50 values (Table I) are determined from plotting the percent inhibition of nitrite production at 6 different concentrations of inhibitor.

recurrent GBM = recurrent GBM after resection and radiotherapy; cited from earlier work
[1] = tested on: inducible nitric oxide synthase activity in vivo; assay: In vivo assay: LPS-induced plasma nitrite/nitrate in endotoxin-treated rats; set-up: species or system rat; details: oral administration, plasma nitrite/nitrate 5 hr post-treatment; for ED50: Rattus norvegicus
Description: Plasma nitrite/nitrate levels can be determined 5 hr post-treatment.

[2] = tested on: C6 cells overexpressing iNOS; details: concentration-dependent; cited from earlier work

SMILES | IC50 (human cartilage explants; Homo sapiens) | ED50 [1] | also measured
CC(=N)NCC(F)=CCC[C@H](N)C(=O)O (mixture of isomers) [Example B, (2S,5E/Z)-2-amino-6-fluoro-7-[(1-iminoethyl)amino]-5-heptenoic acid, dihydrochloride] | 200 nM | – | –
O=NN(CCCl)C(=O)NCCCl [BCNU, 1,3-bis(β-chloroethyl)-1-nitrosourea] | – | – | response rate (recurrent GBM): about 30%
O=NN(CCCl)C(=O)NC1CCCCC1 [CCNU, urea, N-(2-chloroethyl)-N′ cyclohexyl-N-nitroso-(9CI)] | – | – | response rate (recurrent GBM): about 30%
CC(=N)NC/C(F)=C\CC[C@H](N)C(=O)O [Example A, (2S,5E)-2-amino-6-fluoro-7-[(1-iminoethyl)amino]-5-heptenoic acid, dihydrochloride] | 100 nM | < 0.1 mg/kg | ED50 in endotoxin-treated rats ([1]; dihydrochloride): <0.1 mg/kg
CC(=N)NC/C(F)=C/CC[C@H](N)C(=O)O [Example D, (2S,5Z)-2-amino-6-fluoro-7-[(1-iminoethyl)amino]-5-heptenoic acid, trihydrochloride, dihydrate] | 2500 nM | > 10 mg/kg | –
CC(=NO)NC/C(F)=C\CC[C@H](N)C(=O)O [Example G, (2S,5E)-2-amino-6-fluoro-7-[(1-hydroximinoethyl)amino]-5-heptenoic acid] | – | < 0.1 mg/kg | melting point: 198 to 200 °C
CC(=N)NC/C(F)=C\CC[C@H](N)C(=O)Nc1nnn[nH]1 [Example H, (2S,5E)-2-amino-6-fluoro-7-[(1-iminoethyl)amino]-N-(1H-tetrazol-5-yl) 5-heptenamide, dihydrochloride] | – | < 0.3 mg/kg | –
CC(=N)NC/C(F)=C\CC[C@](C)(N)C(=O)O.Cl.Cl [Example HH, (2S,5E)-2-amino-2-methyl-6-fluoro-7-[(1-iminoethyl)amino]-5-heptenoic acid, dihydrochloride] | 400 nM | 0.4 mg/kg | –
COC[C@](N)(CSCCNC(C)=N)C(=O)O [Example J, 2-[[[2-[(1-Iminoethyl)amino]ethyl]thiolmethyl]-O-methyl-D-serine, dihydrochloride] | – | – | IC50 (human cartilage explants): 8200 nM
CC(=N)NC/C=C\CC[C@](C)(N)C(=O)O [Example LL, (2S,5Z)-7-acetimidoylamino-2-amino-2-methyl-hept-5-enoic acid] | 800 nM | 0.3 mg/kg | –
Cl.N=C1CCCC[C@H](CCCC[C@@H](N)C(=O)O)N1.O.O.O [Example V, (αR,2S)-α-aminohexahydro-7-imino-1H-azepine-2-hexanoic acid, trihydrate hydrochloride] | < 10000 nM | < 3 mg/kg | –
N=C1CCCC[C@H](CCCC[C@H](N)C(=O)O)N1 [Example X, (αS,2S)-α-aminohexahydro-7-imino-1H-azepine-2-hexanoic acid, trihydrate hydrochloride] | – | – | IC50 (human cartilage explants): < 10000 nM
N=C1CCCC[C@H](CCCC[C@H](N)C(=O)O)N1 [Example Z, (αS,2S)-α-aminohexahydro-7-imino-1H-azepine-2-hexanoic acid, trihydrate hydrochloride] | < 10000 nM | – | –
COC(=O)[C@@H](N)CCCNC(=N)N[N+](=O)[O-] [L-NAME] | – | – | BCNU toxicity [2]: restoration of BCNU toxicity; nitrite levels [2]: reduced the nitrite levels
